Several values for one entry are separate records, joined by “and”; a condition that tells them apart may be missing. Identical values can stand only once. Marks after values point to notes of the source that are not given here. Square brackets hold non-standard residues; d marks the D form. Ends that are not written are not given here. Peptide text beside a SMILES is read from it.
How the values were obtained:
[1] = Pharmacokinetic study of BNP conjugates, single IV dose in rats; type: in vivo, Sprague-Dawley rats; conditions: for Cmax: test article in plasma (non-releasable PEG-BNP or native BNP)
Source text: All animals were food fasted overnight.
Following the last collection point, the animals were euthanized. […]

[2] = target: T1, GPR54 G-Protein coupled receptor (Homo sapiens, UniProt Q969F8); assay: FLIPR calcium flux agonist assay on GPR54; type: cell-based; conditions: no release incubation
T1 construct: host or cells: Chem-1 host cells

[3] = Pharmacokinetic study of protegrin conjugates, single IV dose in rats; type: in vivo, Sprague-Dawley rats
Protocol: The weight range of the animals was 313-346 grams. All animals were food fasted overnight.
Following the last collection point, the animals were euthanized. Bioanalytical analysis: analysis of the plasma samples was conducted using non-validated LC-MS/MS methods.

[4] = Pharmacokinetic study of V681 (V13AD) conjugates, single IV dose in rats; type: in vivo, Sprague-Dawley rats; conditions: 1.0 mg/kg equivalent protein mass IV
Source text: The weight range of the animals was 311-346 grams. All animals were food fasted overnight. […] The predose sample was collected from the JVC.
Following the last collection point, the animals were euthanized.

[5] = test system: db/db diabetic mice; assay: Blood glucose levels in db/db diabetic mice after i.p. injection; type: in vivo
Protocol: At different time points after dosing blood glucose levels were measured.
PBS saline solution and Dextran equivalent dose were administrated as negative controls.

[6] = rat, in vivo, protegrin-1 in plasma (released or native), 1.6 mg/kg equivalent protein mass IV
[7] = test compound in plasma (non-releasable conjugates, native PG-1), […] equivalent protein mass IV, Mean ± SD
[8] = protegrin-1 in plasma (released or native), […] equivalent protein mass IV
[9] = 0.459 mg/kg equivalent protein mass IV, rats
[10] = test article in plasma (non-releasable PEG-BNP), 0.459 mg/kg equivalent protein mass IV, rats
[11] = BNP in plasma (released from conjugate or given as native), 0.459 mg/kg equivalent protein mass IV, rats
[12] = intact C2-FMOC-PEG2-40K-BNP, IV bolus, rats

T1 sequence (Q969F8 whole entry): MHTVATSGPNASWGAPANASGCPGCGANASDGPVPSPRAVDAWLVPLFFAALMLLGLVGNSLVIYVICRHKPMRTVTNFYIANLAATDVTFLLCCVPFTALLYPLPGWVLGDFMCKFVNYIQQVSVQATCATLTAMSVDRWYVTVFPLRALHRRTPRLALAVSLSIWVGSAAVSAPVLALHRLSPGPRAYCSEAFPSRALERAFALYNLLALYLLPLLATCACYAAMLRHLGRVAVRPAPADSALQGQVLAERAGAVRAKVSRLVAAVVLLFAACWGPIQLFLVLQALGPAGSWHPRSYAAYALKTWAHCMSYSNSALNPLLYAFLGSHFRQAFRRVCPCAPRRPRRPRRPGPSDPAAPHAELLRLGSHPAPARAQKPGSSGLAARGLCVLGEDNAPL

## CC[C@H](C)[C@@H]1NC(=O)[C@H](CCCNC(=N)N)NC(=O)[C@H](CC(=O)O)NC(=O)[C@H](CCSC)NC(=O)[C@H](CCCCN)NC(=O)[C@H](CCCNC(=N)N)NC(=O)CNC(=O)[C@H](Cc2ccccc2)NC(=O)[C@@H](NC(=O)CNC(=O)[C@H](CO)NC(=O)CNC(=O)[C@H](CCC(N)=O)NC(=O)[C@@H](NC(=O)[C@H](CCSC)NC(=O)[C@H](CCCCN)NC(=O)[C@@H]2CCCN2C(=O)[C@@H](N)CO)C(C)C)CSSC[C@@H](C(=O)N[C@@H](CCCCN)C(=O)N[C@H](C(=O)N[C@@H](CC(C)C)C(=O)N[C@@H](CCCN=C(N)N)C(=O)N[C@@H](CCCN=C(N)N)C(=O)N[C@@H](Cc2cnc[nH]2)C(=O)O)C(C)C)NC(=O)CNC(=O)[C@H](CC(C)C)NC(=O)CNC(=O)[C@H](CO)NC(=O)[C@H](CO)NC(=O)[C@H](CO)NC(=O)[C@H](CO)NC1=O [BNP, Brain Natriuretic Peptide (BNP-32), reference compound]
[1]; male, Sprague-Dawley, rat, plasma, 0.03 hr after IV BNP administration, all animals, read-out: plasma concentration at first time point
  level at 0.03 h: < 20 ng/mL

## CC(C)C[C@H](NC(=O)CNC(=O)[C@H](Cc1ccccc1)NC(=O)[C@H](CO)NC(=O)[C@H](CC(N)=O)NC(=O)[C@H](Cc1c[nH]c2ccccc12)NC(=O)[C@H](CC(N)=O)NC(=O)[C@@H](N)Cc1ccc(O)cc1)C(=O)N[C@@H](CCCNC(=N)N)C(=O)N[C@@H](Cc1ccccc1)C(N)=O [KP10, Kisspeptin-10]
[2]; agonist activation at GPR54
  EC50: 10 to 14 nM and 10 nM
[2]
  Fold change compared to metastin: 1

## CC(C)C[C@H](NC(=O)CNC(=O)[C@H](Cc1ccccc1)NC(=O)[C@H](CO)NC(=O)[C@H](CC(N)=O)NC(=O)[C@H](Cc1c[nH]c2ccccc12)NC(=O)[C@H](CC(N)=O)NC(=O)[C@H](Cc1ccc(O)cc1)NC(=O)[C@H](CC(N)=O)NC(=O)[C@@H]1CCCN1C(=O)[C@@H](N)CC(C)C)C(=O)N[C@@H](CCCNC(=N)N)C(=O)N[C@@H](Cc1ccccc1)C(N)=O [KP13, Kisspeptin-13]
[2]; agonist activation at GPR54
  EC50: 11 nM
[2]
  Fold change compared to metastin: 1

## CC(C)C[C@H](NC(=O)[C@H](CCCNC(=N)N)NC(=O)CNC(=O)CNC(=O)[C@@H](N)CCCNC(=N)N)C(=O)N[C@H]1CSSC[C@@H](C(=O)N[C@H](C(=O)NCC(=O)N[C@@H](CCCNC(=N)N)C(N)=O)C(C)C)NC(=O)[C@H](C(C)C)NC(=O)[C@@H]2CSSC[C@H](NC(=O)[C@H](Cc3ccc(O)cc3)NC1=O)C(=O)N[C@@H](CCCNC(=N)N)C(=O)N[C@@H](CCCNC(=N)N)C(=O)N[C@@H](CCCNC(=N)N)C(=O)N[C@@H](Cc1ccccc1)C(=O)N2 [Protegrin-1, reference compound]
[3]; [6]
  AUC(0-inf): 1160 ± 351 ng·h/mL
  Cmax: 2050 ± 601 ng/mL
  MRT last: 31.2 ± 3 min
  half-life: 21 min
[3]; rat, in vivo, protegrin-1 in plasma (released or native), 1.6 mg/kg equivalent protein mass IV, read-out: Tmax
  Tmax: 1.8 min
[3]; rat, in vivo, test compound in plasma (non-releasable conjugates, native PG-1), 1.6 mg/kg equivalent protein mass IV, Mean ± SD
  clearance: 24.5 mL/min/kg
[3]; rat, in vivo, test compound in plasma (non-releasable conjugates, native PG-1), 1.6 mg/kg equivalent protein mass IV, Mean ± SD, read-out: Vss
  Vd: 0.848 ± 0.36 L/kg

## CC[C@H](C)[C@H](NC(=O)[C@H](C)NC(=O)[C@H](CCCCN)NC(=O)[C@H](CC(C)C)NC(=O)[C@H](C)NC(=O)[C@@H](NC(=O)[C@H](Cc1c[nH]cn1)NC(=O)[C@H](CC(C)C)NC(=O)[C@@H](NC(=O)[C@@H](NC(=O)[C@H](CCCCN)NC(=O)[C@@H](C)NC(=O)[C@H](C)NC(=O)[C@H](CO)NC(=O)[C@H](CCCCN)NC(=O)[C@H](Cc1ccccc1)NC(=O)[C@@H](NC(=O)[C@H](CCCCN)NC(=O)[C@H](CC(C)C)NC(=O)[C@H](Cc1ccccc1)NC(=O)[C@H](CO)NC(=O)[C@H](CCCCN)NC(=O)[C@H](Cc1c[nH]c2ccccc12)NC(=O)[C@H](CCCCN)NC(C)=O)[C@@H](C)O)[C@@H](C)O)C(C)C)[C@@H](C)O)C(=O)N[C@@H](CO)C(=O)N[C@@H](CO)C(N)=O [V681 (V13AD), V681(V13AD), reference compound] (Ac-KWKSFLKTFKSA[dA]KTVLHTALKAISS-NH2)
[4]
  AUCINF: 7210 ± 1430 ng·h/mL
  CL: 2.37 ± 0.433 mL/min/kg
  Cmax: 16500 ± 9670 ng/mL
  MRT: 19.8 ± 4.8 min
  T1/2: 36.6 ± 23.4 min
  Vss: 0.0477 ± 0.018 L/kg

## (PG-1)-(ALD)22K-(PG-1) (RGGRLCYCRRRFCVCVGR-NH2; cysteine pairing not given here; also: two peptide copies linked by PEG-dibutyraldehyde 2K; UniProt P32194 131-148, looked up) [PG-1-PEG-2K-PG-1, non-releasable di-peptide conjugate with bi-functional PEG-butyraldehyde-2K]
[3]; [7]
  CL: 3.48 ± 0.455 mL/min/kg
  T1/2: 438 ± 66 min
  Vss: 0.432 ± 0.0405 L/kg

## ALD40K-PG-1 (RGGRLCYCRRRFCVCVGR-NH2; cysteine pairing not given here; also: mPEG2-butyraldehyde 40K conjugate; UniProt P32194 131-148, looked up) [mPEG2-40K-PG-1, non-releasable conjugate of protegrin-1 with mPEG2-butaraldehyde-40K]
[3]; [7]
  CL: 0.548 ± 0.207 mL/min/kg
  T1/2: 648 ± 180 min
  Vss: 0.32 ± 0.131 L/kg

## GTSLSPPPESSGSPQQPGLSAPHSRQIPAPQGAVLVQREKDLPNYNWNSFGLRF-NH2 [KP54, Kisspeptin-54]
[2]; agonist activation at GPR54
  EC50: 190 nM
[2]
  Fold change compared to metastin: 16

## Insulin
[5]; Ins 5 ug/mouse, time 0 hr, N = 5
  Blood glucose level, Mean: 510 mg/dL
[5]; Ins 5 ug/mouse, time 1 hr, N = 5
  Blood glucose level, Mean: 265 mg/dL
[5]; Ins 5 ug/mouse, time 2 hr, N = 5
  Blood glucose level, Mean: 352 mg/dL
[5]; Ins 5 ug/mouse, time 4 hr, N = 5
  Blood glucose level, Mean: 587 mg/dL
[5]; Ins 5 ug/mouse, time 8 hr, N = 5
  Blood glucose level, Mean: 538 mg/dL
[5]; Ins 5 ug/mouse, time 24 hr, N = 5
  Blood glucose level, Mean: 538 mg/dL
[5]; Ins 50 ug/mouse, time 0 hr, N = 5
  Blood glucose level, Mean: 445 mg/dL
[5]; Ins 50 ug/mouse, time 1 hr, N = 5
  Blood glucose level, Mean: 210 mg/dL
[5]; Ins 50 ug/mouse, time 2 hr, N = 5
  Blood glucose level, Mean: 150 mg/dL
[5]; Ins 50 ug/mouse, time 4 hr, N = 5
  Blood glucose level, Mean: 550 mg/dL
[5]; Ins 50 ug/mouse, time 8 hr, N = 5
  Blood glucose level, Mean: 558 mg/dL
[5]; Ins 50 ug/mouse, time 24 hr, N = 5
  Blood glucose level, Mean: 541 mg/dL

## [mono]-[4,7-CG-PEG2-FMOC-NHS-40K]-[protegrin-1] (RGGRLCYCRRRFCVCVGR-NH2; cysteine pairing not given here; also: releasable CG-PEG2-FMOC 40K PEG, site not given here; UniProt P32194 131-148, looked up) [CG-PEG2-FMOC-40K-PG-1, releasable PEG conjugate of protegrin-1]
[3]; [8]
  T1/2 (hr): 1.95* hr
  Tmax: 1.8 min

## [mono]-[mPEG2-Butyr-ALD-40K]-[BNP-32] [ButyrALD-40K-BNP]
[1]; [9]
  Cmax: 1410 ng/mL
[1]; [10]
  AUCINF: 41300 ng·h/mL
  CL: 0.185 mL/min/kg
  MRTlast: 1440 min
  T½: 1570 min
  Vss: 0.631 L/kg

## [mono]-[mPEG2-C2-fmoc-NHS-40K]-[BNP-32] [C2-FMOC-PEG2-40K-BNP]
[1]; [11]
  AUCINF: 162 ng·h/mL
  MRTlast: 110 min
[1]; BNP in plasma (released from conjugate or given as native), 0.459 mg/kg equivalent protein mass IV, rats, 0.459 mg/kg
  Tmax: 18 min and 19.8 min
[1]; following C2-FMOC-PEG2-40K-BNP IV dosing
  time released BNP stayed above 20 ng/mL: 8 h
[1]; [12]
  Peak concentration of the conjugate in plasma: 1300 ng/mL
  half-life of the conjugate in plasma: 900 min
  time plasma conjugate concentrations remained above 100 ng/mL: 24 h

## [mono]-[mPEG-Butyr-ALD-10K]-[BNP-32] [ButyrALD-10K-BNP]
[1]; [9]
  Cmax: 355 ng/mL
[1]; [10]
  AUCINF: 96.6 ng·h/mL
  CL: 79.17 mL/min/kg
  MRTlast: 22.1 min
  T½: 16.3 min
  Vss: 2.27 L/kg

## [mono]-[mPEG-ButyrALD-30K]-[Kisspeptin-13] (LPNYNWNSFGLRF; also: mono-PEGylated with mPEG-ButyrALD 30K, site not given here; UniProt Q15726 109-121, looked up) [Ald30K-KP13]
[2]; agonist activation at GPR54
  EC50 (nM): No activity

## dextran-butyrALD-40K-insulin [Dex-Ins]
[5]; Dex-Ins 250 ug/mouse i.p., time 0 hr, N = 4
  Blood glucose level, Mean: 495 mg/dL
[5]; Dex-Ins 250 ug/mouse i.p., time 1 hr, N = 4
  Blood glucose level, Mean: 263 mg/dL
[5]; Dex-Ins 250 ug/mouse i.p., time 2 hr, N = 4
  Blood glucose level, Mean: 192 mg/dL
[5]; Dex-Ins 250 ug/mouse i.p., time 4 hr, N = 4
  Blood glucose level, Mean: 462 mg/dL
[5]; Dex-Ins 250 ug/mouse i.p., time 8 hr, N = 4
  Blood glucose level, Mean: 494 mg/dL
[5]; Dex-Ins 250 ug/mouse i.p., time 24 hr, N = 4
  Blood glucose level, Mean: 517 mg/dL
[5]; at 1 hr and 2 hr after administration, 250 ug/mouse i.p.
  decrease of db/db mice glucose levels: 40-60%

From US20110166063A1 (priority 2008, published 2011)
